Ki data for 19 compounds are collected here from paper PMC6009871, “Anion inhibition studies of a beta carbonic anhydrase from the malaria mosquito Anopheles gambiae” (Journal of Enzyme Inhibition and Medicinal Chemistry, 2018).

Each structure is given as a SMILES string.

The target of one experiment is T1, AgaCA (Anopheles gambiae, UniProt Q5TU56).
T1 construct: gene 1272966; full-length beta-CA, C-terminal thrombin site and His6 tag (tag removed by thrombin), baculovirus/Sf9
T1 sequence (Q5TU56 1-255): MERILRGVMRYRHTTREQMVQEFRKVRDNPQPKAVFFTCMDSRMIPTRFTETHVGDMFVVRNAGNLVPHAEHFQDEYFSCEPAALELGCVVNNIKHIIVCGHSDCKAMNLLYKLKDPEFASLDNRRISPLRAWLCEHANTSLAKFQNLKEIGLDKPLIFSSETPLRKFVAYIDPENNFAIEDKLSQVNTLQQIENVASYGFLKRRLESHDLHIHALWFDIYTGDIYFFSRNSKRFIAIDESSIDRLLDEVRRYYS
In words: biochemical.
Conditions: not given
In the case of `O=P(O)(O)OP(=O)(O)O` [P2O7^4−], the Ki was found to be 8.52 mM.
As to `N#CS` [SCN^−], the Ki was found to be 6.41 mM.
`O=S(=O)(O)O` [SO4^2−]: the Ki was 9.03 mM.

Staying with this experiment, now noted: read-out: AgaCA^c.
As to `N#CO` [CNO^−], the Ki stood at 9.46 mM.
On the same count and under the same terms, the same measure for `S=C(S)S` [CS3^2−]: 8.19 mM; for `Cl` [Cl^−]: 8.74 mM; for `CCN(CC)C(=S)S` [Et2NCS2^−]: 0.65 mM.
Same read-out and setting: the same measure for `F` [F^−]: 9.42 mM.
As for `NS(N)(=O)=O` [H2NSO2NH2], the Ki worked out at 0.054 mM.
Turning to `S` [HS^−], the Ki is 25.1 mM.
For the compound `O=NO` [NO2^−], the Ki amounted to 4.55 mM.
Still for that read-out and setting: with `O=[N+]([O-])O` [NO3^−] the figure was 6.5 mM.
For `OB(O)c1ccccc1` [Ph-B(OH)2], the Ki came out at 0.047 mM.
As for `N#C[SeH]` [SeCN^−], the Ki turned out to be 8.68 mM.
Take `O=[Se](=O)(O)O` [SeO4^2−]: the Ki was found to be 9.41 mM.
For the compound `[O]=[Sn]([OH])[OH]` [SnO3^2−], the Ki came to 1.8 mM.
Same read-out and setting: with `O=[Te](=O)(O)O` [TeO4^2−] the figure was 4.96 mM.
In the case of `[O]=[V]([OH])([OH])[O][V](=[O])([OH])[OH]` [V2O7^4−], the Ki is 7.98 mM.

Still in this experiment, the particulars now being: read-out: KI [mM]^e / hCA I^a.
As for `NS(=O)(=O)O` [H2NSO3H], the Ki stood at 0.021 mM.
